Data published in patent US20250051694A1, “BAR COMPOSITION HAVING ENHANCED ANTIMICROBIAL ACTIVITY” (Conopco, Inc., d/b/a UNILEVER, priority 2021, published 2025).

Tested on: S. aureus ATCC 6538
Assay: Time-kill assay (adapted from ASTM E2315-16), Gram positive
Format: cell-based
Conditions: Table II, simulated 10% slurry
Procedure: Aqueous slurries were prepared whereby gratings from the bars made in the Samples of Table I were mixed with water to form a test solution containing 10% by weight of the initial bar component. In the second method, raw bar components, as depicted in the Samples in Table II, were mixed with water to form a test solution containing a total of 10% raw bar component to simulate an aqueous slurry of a bar composition. For each sample, aqueous slurries were mixed at 50° C. to simulate customary consumer washing conditions.
As to the microbes, E. coli ATCC 10536 and S. aureus ATCC 6538 were used in this study to represent Gram negative and Gram positive bacteria, respectively. The bacteria were stored at −80° C. Fresh isolates were cultured twice on Tryptic Soy Agar plates for 24 hours at 37° C. before each experiment.
Test solutions were prepared. In the first method and for the aqueous slurries made from the bar compositions described in Table I, a composition (typically containing up to 15% surfactant) was mixed with water to form a test solution containing 10% weight percent of the initial formulation. In the second method and for the raw ingredients combined in Table II, the same were mixed with water at levels that simulate a 10% dilution of the slurries. In each assessment, test solutions were heated and mixed at […]
The log reduction was calculated using the formula: […]

Question: For CC(O)C(=O)O (stereo not shown) [lactic acid], which “S. aureus Log Reduction (46° C., 30 sec)” value is on record?
Answer: performed poorly
